Tests used:
[1] = target: WRN (BV08), human Werner helicase (Uniprot Q14191, amino acids 517-1235 with L1074F point mutation) (Homo sapiens (Human), UniProt Q14191, L1074F); assay: WRN (BV08) ADP-Glo assay; type: biochemical; conditions: class symbols A-E, read-out: ADP-Glo_hWRN_IC50
[2] = tested on: p21 induction in HCT116 cells; assay: p21 induction in HCT116 cells; type: cell-based; conditions: Homo sapiens, HCT-116, 24 h, HCT116 cells, 24 h compound incubation; read-out: P21_EC50
In short: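 EC50 from non-linear curve fit of p21 immunofluorescence (800 nm), with GAPDH (700 nm) read alongside. DMSO and a reference WRN inhibitor served as low and high controls. Cells (2,000/well) got 11 compound concentrations in duplicate for 24 h at 37 °C.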

Chain of WRN (BV08), human Werner helicase (Uniprot Q14191, amino acids 517-1235 with L1074F point mutation) (Q14191 other isoform, or with tags, fused parts or gaps L1074F (already in the parent)): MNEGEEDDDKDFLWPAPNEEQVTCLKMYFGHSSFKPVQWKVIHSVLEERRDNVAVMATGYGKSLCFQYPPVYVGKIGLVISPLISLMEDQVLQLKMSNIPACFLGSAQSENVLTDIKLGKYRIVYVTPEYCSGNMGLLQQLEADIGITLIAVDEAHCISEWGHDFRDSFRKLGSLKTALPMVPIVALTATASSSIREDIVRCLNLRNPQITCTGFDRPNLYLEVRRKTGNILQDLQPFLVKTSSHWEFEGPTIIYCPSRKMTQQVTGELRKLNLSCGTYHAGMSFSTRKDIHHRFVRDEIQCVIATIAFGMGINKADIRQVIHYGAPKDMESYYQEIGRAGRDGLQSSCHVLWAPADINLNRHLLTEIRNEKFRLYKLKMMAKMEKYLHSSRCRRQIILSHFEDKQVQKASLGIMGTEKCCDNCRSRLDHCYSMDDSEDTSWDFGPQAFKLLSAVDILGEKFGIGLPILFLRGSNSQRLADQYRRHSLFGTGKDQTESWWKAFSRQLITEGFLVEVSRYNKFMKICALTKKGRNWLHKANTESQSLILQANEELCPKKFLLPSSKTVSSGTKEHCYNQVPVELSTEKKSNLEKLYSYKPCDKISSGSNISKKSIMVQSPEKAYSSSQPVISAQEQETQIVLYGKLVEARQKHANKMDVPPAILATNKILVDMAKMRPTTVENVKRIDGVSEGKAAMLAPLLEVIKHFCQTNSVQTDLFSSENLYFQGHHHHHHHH

IC50 [1]	EC50 [2]	Structure (SMILES)
50 to 100 nM	> 5000 nM	CCc1c(N2CCN(C(=O)c3ncnc(C)c3O)CC2)c(=O)c2nc(C(N)=O)cnc2n1CC(=O)Nc1ccc(C(F)(F)F)cc1Cl [I-50, 5-(2-((2-chloro-4-(trifluoromethyl)phenyl)amino)-2-oxoethyl)-6-ethyl-7-(4-(5-hydroxy-6-methylpyrimidine-4-carbonyl)piperazin-1-yl)-8-oxo-5,8-dihydropyrido[2,3-b]pyrazine-2-carboxamide]
5 to 50 nM	< 500 nM	CCc1c(N2CCN(C(=O)c3c(O)ccnc3OC)CC2)c(=O)c2nc(N(C)C)cnc2n1CC(=O)Nc1ccc(C(F)(F)F)cc1Cl [I-51, N-(2-chloro-4-(trifluoromethyl)phenyl)-2-(2-(dimethylamino)-6-ethyl-7-(4-(4-hydroxy-2-methoxynicotinoyl)piperazin-1-yl)-8-oxopyrido[2,3-b]pyrazin-5(8H)-yl)acetamide]
5 to 50 nM	> 5000 nM	CCc1c(N2CCN(C(=O)c3ncnc(C)c3O)CC2)c(=O)c2nc(N3CCOCC3)cnc2n1CC(=O)Nc1ccc(C(F)(F)F)cc1Cl [I-52, N-(2-chloro-4-(trifluoromethyl)phenyl)-2-(6-ethyl-7-(4-(5-hydroxy-6-methylpyrimidine-4-carbonyl)piperazin-1-yl)-2-morpholino-8-oxopyrido[2,3-b]pyrazin-5(8H)-yl)acetamide]
5 to 50 nM	500 to 2000 nM	CCc1c(N2CCN(C(=O)c3ncnc(C)c3O)CC2)c(=O)c2nc(N3CCC3)cnc2n1CC(=O)Nc1ccc(C(F)(F)F)cc1Cl [I-53, 2-(2-(azetidin-1-yl)-6-ethyl-7-(4-(5-hydroxy-6-methylpyrimidine-4-carbonyl)piperazin-1-yl)-8-oxopyrido[2,3-b]pyrazin-5(8H)-yl)-N-(2-chloro-4-(trifluoromethyl)phenyl)acetamide]
100 to 500 nM	> 5000 nM	CCc1c(N2CCN(C(=O)c3ncnc(C)c3O)CC2)c(=O)c2nc(C(=O)NC)cnc2n1CC(=O)Nc1ccc(C(F)(F)F)cc1Cl [I-54, 5-(2-((2-chloro-4-(trifluoromethyl)phenyl)amino)-2-oxoethyl)-6-ethyl-7-(4-(5-hydroxy-6-methylpyrimidine-4-carbonyl)piperazin-1-yl)-N-methyl-8-oxo-5,8-dihydropyrido[2,3-b]pyrazine-2-carboxamide]
5 to 50 nM	500 to 2000 nM	CCc1c(N2CCN(C(=O)c3ncnc(C)c3O)CC2)c(=O)c2nc(/C=C/COC)cnc2n1CC(=O)Nc1ccc(C(F)(F)F)cc1Cl [I-55, (E)-N-(2-chloro-4-(trifluoromethyl)phenyl)-2-(6-ethyl-7-(4-(5-hydroxy-6-methylpyrimidine-4-carbonyl)piperazin-1-yl)-2-(3-methoxyprop-1-en-1-yl)-8-oxopyrido[2,3-b]pyrazin-5(8H)-yl)acetamide]
5 to 50 nM	> 5000 nM	CCc1c(N2CCN(C(=O)c3ncnc(C)c3O)CC2)c(=O)c2nc(N3CC[C@@H](O)C3)cnc2n1CC(=O)Nc1ccc(C(F)(F)F)cc1Cl [I-56, (R)-N-(2-chloro-4-(trifluoromethyl)phenyl)-2-(6-ethyl-7-(4-(5-hydroxy-6-methylpyrimidine-4-carbonyl)piperazin-1-yl)-2-(3-hydroxypyrrolidin-1-yl)-8-oxopyrido[2,3-b]pyrazin-5(8H)-yl)acetamide]
5 to 50 nM	500 to 2000 nM	CCc1c(N2CCN(C(=O)c3ncnc(C)c3O)[C@H](C)C2)c(=O)c2nc(N(C)C)cnc2n1CC(=O)Nc1ccc(C(F)(F)F)cc1Cl [I-57, (R)-N-(2-chloro-4-(trifluoromethyl)phenyl)-2-(2-(dimethylamino)-6-ethyl-7-(4-(5-hydroxy-6-methylpyrimidine-4-carbonyl)-3-methylpiperazin-1-yl)-8-oxopyrido[2,3-b]pyrazin-5(8H)-yl)acetamide]
5 to 50 nM	< 500 nM	CCc1c(N2CCN(C(=O)c3ncnc(C)c3O)CC2)c(=O)c2nc(N(C)C3CC3)cnc2n1CC(=O)Nc1ccc(C(F)(F)F)cc1Cl [I-58, N-(2-chloro-4-(trifluoromethyl)phenyl)-2-(2-(cyclopropyl(methyl)amino)-6-ethyl-7-(4-(5-hydroxy-6-methylpyrimidine-4-carbonyl)piperazin-1-yl)-8-oxopyrido[2,3-b]pyrazin-5(8H)-yl)acetamide]
5 to 50 nM	2000 to 5000 nM	CCc1c(N2CCN(C(=O)c3ncnc(C)c3O)CC2)c(=O)c2nc(N(C)C3CC(C)(O)C3)cnc2n1CC(=O)Nc1ccc(C(F)(F)F)cc1Cl (stereo not drawn) [I-59, N-(2-chloro-4-(trifluoromethyl)phenyl)-2-(6-ethyl-2-((3-hydroxy-3-methylcyclobutyl)(methyl)amino)-7-(4-(5-hydroxy-6-methylpyrimidine-4-carbonyl)piperazin-1-yl)-8-oxopyrido[2,3-b]pyrazin-5(8H)-yl)acetamide]
5 to 50 nM	500 to 2000 nM	CCc1c(N2CCN(C(=O)c3ncnc(C)c3O)CC2)c(=O)c2nc(N(C)C3CC(OC)C3)cnc2n1CC(=O)Nc1ccc(C(F)(F)F)cc1Cl (stereo not drawn) [I-60, N-(2-chloro-4-(trifluoromethyl)phenyl)-2-(6-ethyl-7-(4-(5-hydroxy-6-methylpyrimidine-4-carbonyl)piperazin-1-yl)-2-((3-methoxycyclobutyl)(methyl)amino)-8-oxopyrido[2,3-b]pyrazin-5(8H)-yl)acetamide]
5 to 50 nM	< 500 nM	CCc1c(N2CCN(C(=O)c3ncnc(C)c3O)CC2)c(=O)c2nc3cc(C)sc3nc2n1CC(=O)Nc1ccc(C(F)(F)F)cc1Cl [I-61, N-(2-chloro-4-(trifluoromethyl)phenyl)-2-(7-ethyl-6-(4-(5-hydroxy-6-methylpyrimidine-4-carbonyl)piperazin-1-yl)-2-methyl-5-oxopyrido[2,3-b]thieno[3,2-e]pyrazin-8(5H)-yl)acetamide]
5 to 50 nM	> 5000 nM	CCc1c(N2CCN(C(=O)c3c(F)cnc(OC)c3O)CC2)c(=O)c2ncc(C)nc2n1CC(=O)Nc1ccc(C(F)(F)F)cc1Cl [I-62, N-(2-chloro-4-(trifluoromethyl)phenyl)-2-(6-ethyl-7-(4-(5-fluoro-3-hydroxy-2-methoxyisonicotinoyl)piperazin-1-yl)-3-methyl-8-oxopyrido[2,3-b]pyrazin-5(8H)-yl)acetamide]
5 to 50 nM	> 5000 nM	CCc1c(N2CCN(C(=O)c3ncnc(C)c3O)CC2)c(=O)c2nc(-c3cnn(C)c3)c(C)nc2n1CC(=O)Nc1ccc(C(F)(F)F)cc1Cl [I-63, N-(2-chloro-4-(trifluoromethyl)phenyl)-2-(6-ethyl-7-(4-(5-hydroxy-6-methylpyrimidine-4-carbonyl)piperazin-1-yl)-3-methyl-2-(1-methyl-1H-pyrazol-4-yl)-8-oxopyrido[2,3-b]pyrazin-5(8H)-yl)acetamide]
5 to 50 nM	500 to 2000 nM	CCc1c(N2CCN(C(=O)c3ncnc(C)c3O)CC2)c(=O)c2nc(C)c(C)nc2n1CC(=O)Nc1ccc(C(F)(F)F)cc1Cl [I-64, N-(2-chloro-4-(trifluoromethyl)phenyl)-2-(6-ethyl-7-(4-(5-hydroxy-6-methylpyrimidine-4-carbonyl)piperazin-1-yl)-2,3-dimethyl-8-oxopyrido[2,3-b]pyrazin-5(8H)-yl)acetamide]
5 to 50 nM	> 5000 nM	CCc1c(N2CCN(C(=O)c3ncnc(C)c3O)CC2)c(=O)c2nc(-c3ccnc(OC)c3)c(C)nc2n1CC(=O)Nc1ccc(C(F)(F)F)cc1Cl [I-65, N-(2-chloro-4-(trifluoromethyl)phenyl)-2-(6-ethyl-7-(4-(5-hydroxy-6-methylpyrimidine-4-carbonyl)piperazin-1-yl)-2-(2-methoxypyridin-4-yl)-3-methyl-8-oxopyrido[2,3-b]pyrazin-5(8H)-yl)acetamide]
5 to 50 nM	2000 to 5000 nM	CCc1c(N2CCN(C(=O)c3ncnc(C)c3O)CC2)c(=O)c2nc(N3CC(OC)C3)cnc2n1CC(=O)Nc1ccc(C(F)(F)F)cc1Cl [I-66, N-(2-chloro-4-(trifluoromethyl)phenyl)-2-(6-ethyl-7-(4-(5-hydroxy-6-methylpyrimidine-4-carbonyl)piperazin-1-yl)-2-(3-methoxyazetidin-1-yl)-8-oxopyrido[2,3-b]pyrazin-5(8H)-yl)acetamide]
5 to 50 nM	> 5000 nM	CCc1c(N2CCN(C(=O)c3c(O)cccc3O)CC2)c(=O)c2ncc(C)nc2n1CC(=O)Nc1ccc(C(F)(F)F)cc1Cl [I-67, N-(2-chloro-4-(trifluoromethyl)phenyl)-2-(7-(4-(2,6-dihydroxybenzoyl)piperazin-1-yl)-6-ethyl-3-methyl-8-oxopyrido[2,3-b]pyrazin-5(8H)-yl)acetamide]
5 to 50 nM	> 5000 nM	CCc1c(N2CCN(C(=O)c3ncc4c(c3O)OCC4)CC2)c(=O)c2ncc(C)nc2n1CC(=O)Nc1ccc(C(F)(F)F)cc1Cl [I-68, N-(2-chloro-4-(trifluoromethyl)phenyl)-2-(6-ethyl-7-(4-(7-hydroxy-2,3-dihydrofuro[3,2-c]pyridine-6-carbonyl)piperazin-1-yl)-3-methyl-8-oxopyrido[2,3-b]pyrazin-5(8H)-yl)acetamide]
5 to 50 nM	> 5000 nM	CCc1c(N2CCN(C(=O)c3ncc4c(c3O)CCO4)CC2)c(=O)c2ncc(C)nc2n1CC(=O)Nc1ccc(C(F)(F)F)cc1Cl [I-69, N-(2-chloro-4-(trifluoromethyl)phenyl)-2-(6-ethyl-7-(4-(4-hydroxy-2,3-dihydrofuro[2,3-c]pyridine-5-carbonyl)piperazin-1-yl)-3-methyl-8-oxopyrido[2,3-b]pyrazin-5(8H)-yl)acetamide]
5 to 50 nM	> 5000 nM	CCc1c(N2CCN(C(=O)c3cccc4oc(=O)[nH]c34)CC2)c(=O)c2ncc(C)nc2n1CC(=O)Nc1ccc(C(F)(F)F)cc1Cl [I-70, N-(2-chloro-4-(trifluoromethyl)phenyl)-2-(6-ethyl-3-methyl-8-oxo-7-(4-(2-oxo-2,3-dihydrobenzo[d]oxazole-4-carbonyl)piperazin-1-yl)pyrido[2,3-b]pyrazin-5(8H)-yl)acetamide]
